Experimental data published in ChEMBL document CHEMBL3885861, “Open TG-GATES”.

Organism: Rattus norvegicus
Test: Open TG-GATES - Regimen: Daily Repeat
Format: toxicity, organism-based, Sprague-Dawley
Parameters: regimen Daily Repeat, gender Male, age 6 weeks
Conditions: in vivo, po, route gavage; for APTT / Bas / Eos / Fbg / Hb / Ht / Lym / MCH / MCHC / MCV / Mono / Neu / PT / Plat / RBC / Ret / WBC: tissue Blood; for KIDNEY_L / KIDNEY_R / KIDNEY_TOTAL: tissue Kidney; for LIVER: tissue Liver; for A/G / ALP / ALT / AST / BUN / CRE / Ca / Cl / DBIL / GLC / IP / K / LDH / Na / PL / RALB / TBIL / TC / TG / TP / gamma-GTP: tissue Plasma
[1] = 100 mg/kg, 72 h, dose level Middle, time 3 day
[2] = 100 mg/kg, […], dose level Middle, time 7 day
[3] = 100 mg/kg, […], dose level Middle, time 14 day
[4] = 100 mg/kg, […], dose level Middle, time 28 day
[5] = 300 mg/kg, 72 h, dose level High, time 3 day
[6] = 300 mg/kg, […], dose level High, time 7 day
[7] = 300 mg/kg, […], dose level High, time 14 day
[8] = 300 mg/kg, […], dose level High, time 28 day

## C[C@]12CCC(=O)C=C1CC[C@@H]1[C@@H]2CC[C@@]2(C)[C@H]1CC[C@]2(C)O [METHYLTESTOSTERONE]
[1]
  TERMINAL_BW: 237.7 g
  APTT: 15.9 s
  Bas: 0%
  Eos: 1%
  Fbg: 325.4 mg/dL
  Hb: 13.7 g/dL
  Ht: 40.1%
  Lym: 73.6%
  MCH: 21.9 pg
  MCHC: 34%
  MCV: 64.5 fL
  Mono: 2.4%
  Neu: 22.6%
  PT: 13 s
  Plat: 107 x10_4/uL
  RBC: 623.4 x10_4/ul
  Ret: 7%
  WBC: 71.4 x10_2/uL
  KIDNEY_L: 1.1 g
  KIDNEY_R: 1 g
  KIDNEY_TOTAL: 2.1 g
  LIVER: 11.9 g
  A/G: 0.9
  ALP: 1787 IU/L
  ALT: 41.8 IU/L
  AST: 65.2 IU/L
  BUN: 14.6 mg/dL
  CRE: 0.2 mg/dL
  Ca: 11.1 mg/dL
  Cl: 107.2 meq/L
  DBIL: 0.02 mg/dL
  GLC: 180 mg/dL
  IP: 8.2 mg/dL
  K: 4.1 meq/L
  LDH: 77.4 IU/L
  Na: 143.4 meq/L
  PL: 135 mg/dL
  RALB: 2.8 g/dL
  TBIL: 0.026 mg/dL
  TC: 55 mg/dL
  TG: 155.2 mg/dL
  TP: 6 g/dL
  gamma-GTP: 1 IU/L
[2]
  TERMINAL_BW: 271.1 g
  APTT: 15.7 s
  Bas: 0%
  Eos: 1%
  Fbg: 324.2 mg/dL
  Hb: 13.9 g/dL
  Ht: 40.8%
  Lym: 79%
  MCH: 21 pg
  MCHC: 34.1%
  MCV: 61.4 fL
  Mono: 2.6%
  Neu: 16.8%
  PT: 13.4 s
  Plat: 116 x10_4/uL
  RBC: 663.8 x10_4/ul
  Ret: 5.3%
  WBC: 72.5 x10_2/uL
  KIDNEY_L: 1.1 g
  KIDNEY_R: 1.2 g
  KIDNEY_TOTAL: 2.3 g
  LIVER: 13.1 g
  A/G: 0.9
  ALP: 2042.4 IU/L
  ALT: 46.8 IU/L
  AST: 71.6 IU/L
  BUN: 16.6 mg/dL
  CRE: 0.2 mg/dL
  Ca: 11 mg/dL
  Cl: 105.4 meq/L
  DBIL: 0.028 mg/dL
  GLC: 194.8 mg/dL
  IP: 8 mg/dL
  K: 4 meq/L
  LDH: 100 IU/L
  Na: 143 meq/L
  PL: 133.6 mg/dL
  RALB: 2.7 g/dL
  TBIL: 0.028 mg/dL
  TC: 45.8 mg/dL
  TG: 238.4 mg/dL
  TP: 5.9 g/dL
  gamma-GTP: 1.2 IU/L
[3]
  TERMINAL_BW: 314.6 g
  APTT: 19.7 s
  Bas: 0.2%
  Eos: 0.6%
  Fbg: 304 mg/dL
  Hb: 14.3 g/dL
  Ht: 41%
  Lym: 78.2%
  MCH: 20.4 pg
  MCHC: 34.9%
  MCV: 58.5 fL
  Mono: 3.2%
  Neu: 17.2%
  PT: 13.5 s
  Plat: 113.1 x10_4/uL
  RBC: 701.4 x10_4/ul
  Ret: 3.6%
  WBC: 101.8 x10_2/uL
  KIDNEY_L: 1.3 g
  KIDNEY_R: 1.3 g
  KIDNEY_TOTAL: 2.6 g
  LIVER: 15 g
  A/G: 0.8
  ALP: 1318.6 IU/L
  ALT: 64.2 IU/L
  AST: 76.2 IU/L
  BUN: 15 mg/dL
  CRE: 0.2 mg/dL
  Ca: 10.6 mg/dL
  Cl: 105.2 meq/L
  DBIL: 0.018 mg/dL
  GLC: 198.8 mg/dL
  IP: 7.9 mg/dL
  K: 4.1 meq/L
  LDH: 118.2 IU/L
  Na: 141.6 meq/L
  PL: 137.8 mg/dL
  RALB: 2.8 g/dL
  TBIL: 0.026 mg/dL
  TC: 52.8 mg/dL
  TG: 157 mg/dL
  TP: 6.1 g/dL
  gamma-GTP: 1.2 IU/L
[4]
  TERMINAL_BW: 402.8 g
  APTT: 17.5 s
  Bas: 0%
  Eos: 1.2%
  Fbg: 337 mg/dL
  Hb: 15.6 g/dL
  Ht: 43.7%
  Lym: 77%
  MCH: 19.9 pg
  MCHC: 35.6%
  MCV: 55.8 fL
  Mono: 2.6%
  Neu: 18.8%
  PT: 13.6 s
  Plat: 99.5 x10_4/uL
  RBC: 783.4 x10_4/ul
  Ret: 3%
  WBC: 101.5 x10_2/uL
  KIDNEY_L: 1.6 g
  KIDNEY_R: 1.5 g
  KIDNEY_TOTAL: 3.2 g
  LIVER: 17.8 g
  A/G: 0.8
  ALP: 1264.2 IU/L
  ALT: 43 IU/L
  AST: 59.8 IU/L
  BUN: 13.8 mg/dL
  CRE: 0.2 mg/dL
  Ca: 11.1 mg/dL
  Cl: 103 meq/L
  DBIL: 0.028 mg/dL
  GLC: 189.2 mg/dL
  IP: 6.4 mg/dL
  K: 3.7 meq/L
  LDH: 99.4 IU/L
  Na: 143 meq/L
  PL: 141 mg/dL
  RALB: 2.8 g/dL
  TBIL: 0.028 mg/dL
  TC: 41.2 mg/dL
  TG: 321.6 mg/dL
  TP: 6.4 g/dL
  gamma-GTP: 1 IU/L
[5]
  TERMINAL_BW: 233.2 g
  APTT: 15.7 s
  Bas: 0%
  Eos: 1%
  Fbg: 295.4 mg/dL
  Hb: 13.8 g/dL
  Ht: 39.9%
  Lym: 74.8%
  MCH: 21.8 pg
  MCHC: 34.6%
  MCV: 63.2 fL
  Mono: 2.8%
  Neu: 21%
  PT: 13.4 s
  Plat: 115.4 x10_4/uL
  RBC: 630.6 x10_4/ul
  Ret: 6.1%
  WBC: 71.4 x10_2/uL
  KIDNEY_L: 1.1 g
  KIDNEY_R: 1.1 g
  KIDNEY_TOTAL: 2.2 g
  LIVER: 12.3 g
  A/G: 0.9
  ALP: 1988.4 IU/L
  ALT: 52.4 IU/L
  AST: 72 IU/L
  BUN: 14.4 mg/dL
  CRE: 0.2 mg/dL
  Ca: 11 mg/dL
  Cl: 106.2 meq/L
  DBIL: 0.028 mg/dL
  GLC: 179 mg/dL
  IP: 8.4 mg/dL
  K: 4.2 meq/L
  LDH: 129.6 IU/L
  Na: 143.2 meq/L
  PL: 110.4 mg/dL
  RALB: 2.8 g/dL
  TBIL: 0.024 mg/dL
  TC: 37.8 mg/dL
  TG: 189 mg/dL
  TP: 5.8 g/dL
  gamma-GTP: 1.2 IU/L
[6]
  TERMINAL_BW: 255 g
  APTT: 19.5 s
  Bas: 0%
  Eos: 0.2%
  Fbg: 345.8 mg/dL
  Hb: 14 g/dL
  Ht: 40.4%
  Lym: 80%
  MCH: 21.6 pg
  MCHC: 34.6%
  MCV: 62.2 fL
  Mono: 3.2%
  Neu: 15.4%
  PT: 13.3 s
  Plat: 121 x10_4/uL
  RBC: 650.2 x10_4/ul
  Ret: 5.3%
  WBC: 65.9 x10_2/uL
  KIDNEY_L: 1.2 g
  KIDNEY_R: 1.2 g
  KIDNEY_TOTAL: 2.4 g
  LIVER: 13.5 g
  A/G: 0.9
  ALP: 1693.8 IU/L
  ALT: 44.4 IU/L
  AST: 63.4 IU/L
  BUN: 13.8 mg/dL
  CRE: 0.2 mg/dL
  Ca: 10.9 mg/dL
  Cl: 105 meq/L
  DBIL: 0.028 mg/dL
  GLC: 182.4 mg/dL
  IP: 7.6 mg/dL
  K: 3.8 meq/L
  LDH: 89.4 IU/L
  Na: 143.4 meq/L
  PL: 117.2 mg/dL
  RALB: 2.9 g/dL
  TBIL: 0.03 mg/dL
  TC: 38.6 mg/dL
  TG: 228.8 mg/dL
  TP: 6.2 g/dL
  gamma-GTP: 1 IU/L
[7]
  TERMINAL_BW: 299.6 g
  APTT: 22.8 s
  Bas: 0%
  Eos: 0%
  Fbg: 327.8 mg/dL
  Hb: 15.3 g/dL
  Ht: 43.7%
  Lym: 70.4%
  MCH: 20.5 pg
  MCHC: 34.9%
  MCV: 58.8 fL
  Mono: 3.4%
  Neu: 25.2%
  PT: 13.5 s
  Plat: 118.5 x10_4/uL
  RBC: 744.4 x10_4/ul
  Ret: 3.2%
  WBC: 93.6 x10_2/uL
  KIDNEY_L: 1.4 g
  KIDNEY_R: 1.4 g
  KIDNEY_TOTAL: 2.8 g
  LIVER: 15.3 g
  A/G: 0.8
  ALP: 1180 IU/L
  ALT: 62 IU/L
  AST: 69.8 IU/L
  BUN: 13 mg/dL
  CRE: 0.2 mg/dL
  Ca: 10.4 mg/dL
  Cl: 105 meq/L
  DBIL: 0.022 mg/dL
  GLC: 172.6 mg/dL
  IP: 7.8 mg/dL
  K: 3.9 meq/L
  LDH: 128.8 IU/L
  Na: 143 meq/L
  PL: 139.2 mg/dL
  RALB: 2.8 g/dL
  TBIL: 0.03 mg/dL
  TC: 44 mg/dL
  TG: 191.2 mg/dL
  TP: 6.2 g/dL
  gamma-GTP: 1.8 IU/L
[8]
  TERMINAL_BW: 358.4 g
  APTT: 19.9 s
  Bas: 0%
  Eos: 1%
  Fbg: 325.4 mg/dL
  Hb: 15.8 g/dL
  Ht: 44.3%
  Lym: 77.8%
  MCH: 19.3 pg
  MCHC: 35.7%
  MCV: 54.1 fL
  Mono: 3.2%
  Neu: 17.4%
  PT: 13.6 s
  Plat: 111.9 x10_4/uL
  RBC: 819 x10_4/ul
  Ret: 2.6%
  WBC: 81.2 x10_2/uL
  KIDNEY_L: 1.8 g
  KIDNEY_R: 1.8 g
  KIDNEY_TOTAL: 3.7 g
  LIVER: 18.6 g
  A/G: 0.8
  ALP: 1072 IU/L
  ALT: 49.8 IU/L
  AST: 60.2 IU/L
  BUN: 12.4 mg/dL
  CRE: 0.2 mg/dL
  Ca: 10.9 mg/dL
  Cl: 101.6 meq/L
  DBIL: 0.026 mg/dL
  GLC: 172 mg/dL
  IP: 6.5 mg/dL
  K: 3.4 meq/L
  LDH: 100 IU/L
  Na: 144.2 meq/L
  PL: 118.6 mg/dL
  RALB: 2.9 g/dL
  TBIL: 0.032 mg/dL
  TC: 36.2 mg/dL
  TG: 202.2 mg/dL
  TP: 6.3 g/dL
  gamma-GTP: 2.6 IU/L
